The values that follow come from patent publication US11053234B2 (GlaxoSmithKline Intellectual Property Development Limited, priority 2016, dated 2021).

The test deals with T1, haematopoietic prostaglandin D synthase (H-PGDS) (Homo sapiens, UniProt O60760).
T1 construct: Full length human H-PGDS cDNA (Invitrogen Ultimate ORF 10H13026) was amplified by PCR; 6-His (N); TEV protease cleavage site (N); made in house; host or cells: E. coli BL21 (DE3*), vector pET22b+
In words: H-PGDS RapidFire high throughput mass spectrometry assay (conversion of PGH2 to PGD2). Format: biochemical. As to conditions: 10 nM H-PGDS, PGH2 formed in situ by COX-2 from arachidonic acid; read-out: Potency Range (mean pIC50) (converted). The procedure, abridged: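 RapidFire SPE–MS read-out calculated percent conversion from relative PGD2 and PGF2α (substrate surrogate) levels. Recombinant full-length human H-PGDS (His-tag, E. coli) turned over PGH2, produced in situ at ˜10 μM by human COX-2 (FLAG-tag, Sf9 cells) acting on arachidonic acid.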

T1 sequence (O60760 whole entry): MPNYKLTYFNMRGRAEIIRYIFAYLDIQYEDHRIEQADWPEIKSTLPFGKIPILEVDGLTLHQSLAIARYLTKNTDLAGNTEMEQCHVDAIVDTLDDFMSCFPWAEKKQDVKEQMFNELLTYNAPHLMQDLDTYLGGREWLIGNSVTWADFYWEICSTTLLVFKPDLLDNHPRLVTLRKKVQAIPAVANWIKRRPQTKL

With `CC(C)(O)[C@H]1CC[C@H](NC(=O)[C@H]2C[C@H](Oc3cc(F)cc(Cl)c3)C2)CC1` [Example 290, (trans)-3-(3-Chloro-5-fluorophenoxy)-N-((trans)-4-(2-hydroxypropan-2-yl)cyclohexyl)cyclobutanecarboxamide], the IC50 was 100 to 1000 nM.

Take `CN(C)c1nccc(N2CC(NC(=O)[C@H]3C[C@H](Oc4cccc5scnc45)C3)C2)n1` [Example 76, (trans)-3-(Benzo[d]thiazol-4-yloxy)-N-(1-(2-(dimethylamino)pyrimidin-4-yl)azetidin-3-yl)cyclobutanecarboxamide]: the IC50 is 100 to 1000 nM.

Consider `O=C(Nc1nc(C(F)(F)F)cs1)[C@H]1C[C@H](Oc2cccc3cccnc23)C1` [Example 201, (trans)-3-(Quinolin-8-yloxy)-N-(4-(trifluoromethyl)thiazol-2-yl)cyclobutanecarboxamide], for which the IC50 is 10 to 79.4 nM.

Regarding `C[C@]1(O)CC[C@H](NC(=O)[C@H]2C[C@H](Oc3cc(F)ccc3OC(F)F)C2)CC1` [Example 29, (trans)-3-(2-(Difluoromethoxy)-5-fluorophenoxy)-N-((trans)-4-hydroxy-4-methylcyclohexyl)cyclobutanecarboxamide], the IC50 is 10 to 79.4 nM.

For `O=C(NC1CCN(C(=O)OCc2ccccc2)CC1)N1CC(Oc2cccc3scnc23)C1` [Example 89, Benzyl 4-(3-(benzo[d]thiazol-4-yloxy)azetidine-1-carboxamido)piperidine-1-carboxylate], the IC50 is 10 to 79.4 nM.

As for `CC(C)(O)C12CC(NC(=O)N3CC(Oc4cccc5scnc45)C3)(C1)C2` [Example 316, 3-(Benzo[d]thiazol-4-yloxy)-N-(3-(2-hydroxypropan-2-yl)bicyclo[1.1.1]pentan-1-yl)azetidine-1-carboxamide], the IC50 is 100 to 1000 nM.

Regarding `CC1(NC(=O)[C@H]2C[C@H](Oc3cc(F)cc4scnc34)C2)CN(c2cccnn2)C1` [Example 237, (trans)-3-((6-Fluorobenzo[d]thiazol-4-yl)oxy)-N-(3-methyl-1-(pyridazin-3-yl)azetidin-3-yl)cyclobutanecarboxamide], the IC50 was 100 to 1000 nM.

As to `O=C(N[C@H]1C[C@H](Nc2ncccn2)C1)[C@H]1C[C@H](Oc2cccc3scnc23)C1` [Example 73, (trans)-3-(Benzo[d]thiazol-4-yloxy)-N-((trans)-3-(pyrimidin-2-ylamino)cyclobutyl)cyclobutanecarboxamide], the IC50 was 100 to 1000 nM.

Consider `CC(C)(O)c1csc(NC(=O)[C@H]2C[C@H](Oc3cccc4scnc34)C2)n1` [Example 55, (trans)-3-(Benzo[d]thiazol-4-yloxy)-N-(4-(2-hydroxypropan-2-yl)thiazol-2-yl)cyclobutanecarboxamide], for which the IC50 is 10 to 79.4 nM.

For the molecule `Cc1cnc(NC(=O)[C@H]2C[C@H](Oc3cccc4cccnc34)C2)o1` [Example 177, (trans)-N-(5-Methyloxazol-2-yl)-3-(quinolin-8-yloxy)cyclobutanecarboxamide], the IC50 is 10 to 79.4 nM.

Turning to `O=C(Nc1ccc(N2CCOCC2)cc1)N1CC(Oc2cccc3scnc23)C1` [Example 310, 3-(Benzo[d]thiazol-4-yloxy)-N-(4-morpholinophenyl)azetidine-1-carboxamide], the IC50 was 10 to 79.4 nM.

`COc1ccc(F)cc1O[C@H]1C[C@H](C(=O)NC2CCN(c3nnnn3C)CC2)C1` [Example 152, (trans)-3-(5-Fluoro-2-methoxyphenoxy)-N-(1-(1-methyl-1H-tetrazol-5-yl)piperidin-4-yl)cyclobutanecarboxamide]: the IC50 was 10 to 79.4 nM.

Regarding `COc1cc(F)ccc1O[C@H]1C[C@H](C(=O)N[C@H]2CC[C@H](C(C)(C)O)CC2)C1` [Example 277, (trans)-3-(4-Fluoro-2-methoxyphenoxy)-N-((trans)-4-(2-hydroxypropan-2-yl)cyclohexyl)cyclobutanecarboxamide], the IC50 was 100 to 1000 nM.

With `CC(C)(O)[C@H]1CC[C@H](NC(=O)N2CC(Oc3ccccc3OC(F)(F)F)C2)CC1` [Example 258], the IC50 is 100 to 1000 nM.
